This passage reports EC50 and inhibition results from patent US10195185B2, “3-(1H-imidazo[4,5-C]pyridin-2-yl)-1H-pyrazolo[4,3-B]pyridines and therapeutic uses thereof” (Samumed, LLC, priority 2015, dated 2019).

The subject of experiment [1] is Primary human fibroblasts derived from IPF patients (LL29 cells) treated with TGF-β1. Kind of experiment: Inhibition of the fibrotic process: αSMA staining in TGF-β1 treated fibroblasts. Conditions: Fibroblast, 96 h, LL29 fibroblasts treated with TGF-β1, 4 days; for inhibition at 10 µM: read-out: percent inhibition in brackets beside EC50 >10 μM. It counts as cell-based. From the text: Representative compounds were screened using primary human fibroblasts (derived from IPF patients) treated with TGF-β1 to determine their ability to inhibit the fibrotic process.
Primary human fibroblasts derived from IPF patients (LL29 cells) [^1Xiaoqiu Liu, et. al., “Fibrotic Lung Fibroblasts Show Blunted Inhibition by cAMP Due to Deficient cAMP Response Element-Binding Protein Phosphorylation”, Journal of Pharmacology and Experimental Therapeutics (2005), 315(2), 678-687; ^2Watts, K. L., et. al., “RhoA signaling modulates cyclin D1 expression in human lung fibroblasts; implications for idiopathic pulmonary fibrosis”, Respiratory Research (2006), 7(1), 88] were obtained from American Type Culture Collection (ATCC) and expanded in F12 medium supplemented with 15% Fetal Bovine Serum and Penicillin/Streptomycin.
Each compound was dissolved in DMSO as a 10 mM stock and used to prepare compound source plates. Serial dilution (1:2, 11-point dose-response curves from 10 μM to 1.87 nM) and compound transfer was performed using the ECHO 550 (Labcyte, Sunnyvale, Calif.) into 384-well clear bottom assay plates (Greiner Bio-One) with appropriate DMSO backfill for a final DMSO concentration of 0.1%. LL29 cells are plated at 1,500 cells/well in 80 μL/well F12 medium supplemented with 1% Fetal Bovine Serum. One hour after addition of the cells, TGF-β1 (Peprotech; 20 ng/mL) was added to the plates to induce fibrosis (ref. 1 and 2 above). Wells treated with TGF-β1 and containing DMSO were used as controls. Cells were incubated at 37° C. and 5% CO2 for 4 days. Following incubation for 4 days, SYTOX green nucleic acid stain (Life Technologies [Thermo Fisher Scientific]) was added to the wells at a final concentration of 1 μM and incubated at room temperature for 30 min. Cells were then fixed using 4% formaldehyde (Electron Microscopy Sciences), washed 3 times with PBS followed by blocking and permeabilization using 3% Bovine Serum Albumin (BSA; Sigma) and 0.3% Triton X-100 (Sigma) in PBS. Cells were then stained with antibody specific to α-smooth muscle actin (αSMA; Abcam) (ref. 1 and 2 above) in 3% Bovine Serum Albumin (BSA; Sigma) and 0.3% Triton X-100 (Sigma) in PBS, and incubated overnight at 4° C. Cells were then washed 3 times with PBS, followed by incubation with Alexa Flor-647 conjugated secondary antibody (Life Technologies [Thermo Fisher Scientific]) and DAPI at room temperature for 1 hour. Cells were then washed 3 times with PBS and plates were sealed for imaging. αSMA staining was imaged by excitation at 630 nm and emission at 665 nm and quantified using the Compartmental Analysis program on the CellInsight CX5 (Thermo Scientific). Dead or apoptotic cells were excluded from analysis based on positive SYTOX green staining. % of total cells positive for αSMA were counted in each well and normalized to the average of 11 wells treated with TGF-β1 on the same plate using Dotmatics' Studies Software. The normalized averages (fold change over untreated) of 3 replicate wells for each compound concentration were used to create dose-responses curves and EC50 values were calculated using non-linear regression curve fit in the Dotmatics' Studies Software. For EC50 of >10 μM, the percent inhibition at 10 μM is provided.

In experiment [2] the test system is IL-6 in human monocyte cell line (THP-1 cells). Kind of experiment: IL-6 inhibition in LPS-stimulated THP-1 cells (HTRF). Format: cell-based. The conditions noted are these: IL-6 in LPS-stimulated THP-1 cells; for EC50: HTRF; for inhibition at 10 µM: read-out: percent inhibition in brackets beside EC50 >10 μM. On the procedure:
Human monocyte cell line (THP-1 cells; Catalog # TIB-202, ATCC, Manassas, Va.) were cultured in Roswell Park Memorial Institute (RPMI) 1640 Medium (Catalog #21870-100, Buffalo, N.Y.) with 1% L-glutamine, 1% HEPES, 1% Sodium Pyruvate, 2% Sodium Bicarbonate supplemented with 100 units/mL penicillin, 50 μg/mL streptomycin, 2-mercaptoethanol (0.05 mM) [basal medium] and 10% fetal bovine serum (Catalog #16140089, Life Technologies, Carlsbad, Calif.) at 37° C. and 5% CO2.
THP-1 cells were cultured in basal media with 1% FBS for 24 hours before the start of the assay. Each compound was dissolved in DMSO as a 10 mM stock and used to prepare compound source plates. Serial dilution (1:3, 10-point dose-response curves starting from 10 μM) and compound transfer was performed using the ECHO 550 (Labcyte, Sunnyvale, Calif.) into 384-well white low volume assay plates (Greiner Bio-One) with appropriate DMSO backfill for a final DMSO concentration of 0.1%. THP-1 cells were plated at 5000 cells/well in the 384-well plates and incubated at 37° C. for 2 h. 500 ng/mL of LPS was added after 2 hours and cells were incubated for another 22 hours at 37° C. Plates were spun in a centrifuge for 1 minute at […] and a mixture of anti-IL6 XL665, and anti-IL6 Cryptate diluted in reconstitution buffer (Cisbio Inc.) was added to each well. Following incubation for 3 hrs at room temperature, Homogeneous Time-Resolved Fluorescence (HTRF) was measured using the Envision (Perkin Elmer) at 665 nm and […]. The ratio of fluorescence at 665 nm to 620 nm was used as a readout for IL6 quantification. All samples were processed in duplicate. Readings were normalized to DMSO treated cells and normalized activities were utilized for EC50 calculations using the dose-response log (inhibitor) vs. response-variable slope (four parameters) nonlinear regression feature available in GraphPad Prism 5.0 (or Dotmatics). For EC50 of >10 μM, the percent inhibition at 10 μM is provided.

Some results are limits rather than exact numbers.

The term EC50 denotes the concentration giving half of the maximal effect. Lower therefore signals greater potency. In general, inhibition refers to the relative decrease from the control value, in per cent. Take `CCC(=O)Nc1cncc(-c2ccc3[nH]nc(-c4nc5c(-c6cccc(F)c6)nccc5[nH]4)c3n2)c1` [Compound 1, N-(5-(3-(4-(3-Fluorophenyl)-1H-imidazo[4,5-c]pyridin-2-yl)-1H-pyrazolo [4,3-b]pyridin-5-yl)pyridin-3-yl)propionamide]: in experiment [1], the concentration for a half-maximal effect (EC50) was more than 10 µM and the inhibition at 10 µM was determined as 0%. For the same compound, in experiment [2], the EC50 was more than 10 µM and the inhibition at 10 µM is 0%.
On to `Fc1cccc(-c2nccc3[nH]c(-c4n[nH]c5ccc(-c6cncc(CN7CCC(F)(F)C7)c6)nc45)nc23)c1` [Compound 26, 5-(5-((3,3-Difluoropyrrolidin-1-yl)methyl)pyridin-3-yl)-3-(4-(3-fluorophenyl)-1H-imidazo[4,5-c]pyridin-2-yl)-1H-pyrazolo[4,3-b]pyridine], for which the EC50 in experiment [1] is 3.21 µM. In experiment [2], the EC50 was more than 10 µM and the inhibition at 10 µM stood at 0%.
In experiment [1], `CC(C)(C)C(=O)Nc1cncc(-c2ccc3[nH]nc(-c4nc5c(-c6ccc(F)cc6)nccc5[nH]4)c3n2)c1` [Compound 36, N-(5-(3-(4-(4-Fluorophenyl)-1H-imidazo[4,5-c]pyridin-2-yl)-1H-pyrazolo [4,3-b]pyridin-5-yl)pyridin-3-yl)pivalamide] had an EC50 of 1.28 µM. In addition, in experiment [2], the EC50 was more than 10 µM and the inhibition at 10 µM was 0%.
Taken in the same sequence, the figures for `Fc1ccc(-c2nccc3[nH]c(-c4n[nH]c5ccc(-c6cncc(CN7CCCC7)c6)nc45)nc23)cc1` [Compound 42, 3-(4-(4-Fluorophenyl)-1H-imidazo[4,5-c]pyridin-2-yl)-5-(5-(pyrrolidin-1-ylmethyl)pyridin-3-yl)-1H-pyrazolo[4,3-b]pyridine] were 2.87 µM, more than 10 µM and 23.3%.
On to `O=C(Nc1cncc(-c2ccc3[nH]nc(-c4nc5c(-c6ccc(F)cc6)nccc5[nH]4)c3n2)c1)C1CCC1` [Compound 49, N-(5-(3-(4-(4-Fluorophenyl)-1H-imidazo[4,5-c]pyridin-2-yl)-1H-pyrazolo [4,3-b]pyridin-5-yl)pyridin-3-yl)cyclobutanecarboxamide], for which, in experiment [1], the EC50 is more than 10 µM and the inhibition at 10 µM amounted to 7.5%. In experiment [2], the EC50 was more than 10 µM and the inhibition at 10 µM stood at 0%.
Take `Fc1ccc(-c2nccc3[nH]c(-c4n[nH]c5ccc(-c6cncnc6)nc45)nc23)cc1` [Compound 55, 3-(4-(4-Fluorophenyl)-1H-imidazo[4,5-c]pyridin-2-yl)-5-(pyrimidin-5-yl)-1H-pyrazolo[4,3-b]pyridine]: the EC50 in experiment [1] was 2.18 µM; in experiment [2], more than 10 µM. Also, in experiment [2], the inhibition at 10 µM was 27.3%.
In the case of `Nc1cncc(-c2ccc3[nH]nc(-c4nc5c(-c6ccccc6F)nccc5[nH]4)c3n2)c1` [Compound 59, 5-(3-(4-(2-Fluorophenyl)-1H-imidazo[4,5-c]pyridin-2-yl)-1H-pyrazolo[4,3-b]pyridin-5-yl)pyridin-3-amine], the EC50 in experiment [1] and in experiment [2] was more than 10 µM throughout. The figures for the inhibition at 10 µM in experiment [1] and in experiment [2] were 0% and 30.6%, respectively.
As for `CC(C)C(=O)Nc1cncc(-c2ccc3[nH]nc(-c4nc5c(-c6ccccc6F)nccc5[nH]4)c3n2)c1` [Compound 65, N-(5-(3-(4-(2-fluorophenyl)-1H-imidazo[4,5-c]pyridin-2-yl)-1H-pyrazolo [4,3-b]pyridin-5-yl)pyridin-3-yl)isobutyramide], in experiment [1], the EC50 was more than 10 µM and the inhibition at 10 µM was found to be 4%. Moreover, in experiment [2], the concentration giving a half-maximal response (EC50) is more than 10 µM and the inhibition at 10 µM is 40.4%.
For the compound `CC(C)(C)CC(=O)Nc1cncc(-c2ccc3[nH]nc(-c4nc5c(-c6ccccc6F)nccc5[nH]4)c3n2)c1` [Compound 72, N-(5-(3-(4-(2-fluorophenyl)-1H-imidazo[4,5-c]pyridin-2-yl)-1H-pyrazolo [4,3-b]pyridin-5-yl)pyridin-3-yl)-3,3-dimethylbutanamide], the half-maximal effective concentration (EC50) in experiment [1] and in experiment [2] was more than 10 µM throughout. The inhibition at 10 µM worked out at 0% in experiment [1] and 26.1% in experiment [2].
On to `O=C(Nc1cncc(-c2ccc3[nH]nc(-c4nc5c(-c6ccccc6F)nccc5[nH]4)c3n2)c1)C1CCCC1` [Compound 78, N-(5-(3-(4-(2-Fluorophenyl)-1H-imidazo[4,5-c]pyridin-2-yl)-1H-pyrazolo [4,3-b]pyridin-5-yl)pyridin-3-yl)cyclopentanecarboxamide], for which, in experiment [1], the EC50 is more than 10 µM and the inhibition at 10 µM was found to be 0%. Further, in experiment [2], the half-maximal effective concentration (EC50) was more than 10 µM and the inhibition at 10 µM is 29.7%.
On to `Fc1ccccc1-c1nccc2[nH]c(-c3n[nH]c4ccc(-c5cncc(CNCC6CCCC6)c5)nc34)nc12` [Compound 81, 1-Cyclopentyl-N-((5-(3-(4-(2-fluorophenyl)-1H-imidazo[4,5-c]pyridin-2-yl)-1H-pyrazolo[4,3-b]pyridin-5-yl)pyridin-3-yl)methyl)methanamine], for which the EC50 in experiment [1] was determined as 1.28 µM. Besides, in experiment [2], the EC50 was more than 10 µM and the inhibition at 10 µM came out at 54.6%.
For the compound `Fc1ccccc1-c1nccc2[nH]c(-c3n[nH]c4ccc(-c5ccccn5)nc34)nc12` [Compound 84, 3-(4-(2-Fluorophenyl)-1H-imidazo[4,5-c]pyridin-2-yl)-5-(pyridin-2-yl)-1H-pyrazolo[4,3-b]pyridine], in experiment [1], the EC50 was more than 10 µM and the inhibition at 10 µM came to 18.1%. Besides, in experiment [2], the 50% effective concentration (EC50) is more than 10 µM and the inhibition at 10 µM came out at 27.2%.
As for `c1cncc(-c2ccc3[nH]nc(-c4nc5c(-c6cccnc6)nccc5[nH]4)c3n2)c1` [Compound 88, 5-(Pyridin-3-yl)-3-(4-(pyridin-3-yl)-1H-imidazo[4,5-c]pyridin-2-yl)-1H-pyrazolo[4,3-b]pyridine], the EC50 in experiment [1] and in experiment [2] was more than 10 µM each time. Further, the inhibition at 10 µM in experiment [1] was found to be 22.2%; in experiment [2] it was 20.4%.
`CC(C)C(=O)Nc1cncc(-c2ccc3[nH]nc(-c4nc5c(-c6cccnc6)nccc5[nH]4)c3n2)c1` [Compound 93, N-(5-(3-(4-(Pyridin-3-yl)-1H-imidazo[4,5-c]pyridin-2-yl)-1H-pyrazolo[4,3-b]pyridin-5-yl)pyridin-3-yl)isobutyramide]: the concentration giving a half-maximal response (EC50) in experiment [1] was 2.01 µM; in experiment [2] it was more than 10 µM. Also, in experiment [2], the inhibition at 10 µM was found to be 25.1%.
